According to PubChem BioAssay AID2060620 (Molecular Pharmacology Branch, DTP, NCI, 2025):
Several values for one entry are separate records, joined by “and”; a condition that tells them apart may be missing. Equal entries are not always repeated.

System: 328373-195-R-J1-PDC complex spheroids, viability % test/control
Assay: Anticancer human tumor 328373-195-R-J1-PDC patient-derived head and neck squamous carcinoma cell line growth inhibition [CLK]
Conditions: for viability, T/C: stronger effect = lower value
Procedure, shortened: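 Multi-cell-type spheroids combined patient-derived tumor cells with HUVEC endothelial cells and human mesenchymal stem cells. Paired agents were dosed in half-log steps down from about clinical Cmax, or from 10 microM where Cmax was unknown.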

[1] = curve of first compound, second compound 0.0316 µM
[2] = curve of first compound, second compound 0.1 µM
[3] = curve of first compound, second compound 0.316 µM
[4] = curve of first compound, second compound 1 µM
[5] = curve of first compound, second compound 3.16 µM
[6] = curve of first compound, second compound 10 µM
[7] = second compound 0.0316 µM, first compound 0.0316 µM
[8] = second compound 0.0316 µM, first compound 0.1 µM
[9] = second compound 0.0316 µM, first compound 0.316 µM
[10] = second compound 0.0316 µM, first compound 1 µM
[11] = second compound 0.0316 µM, first compound 3.16 µM
[12] = second compound 0.0316 µM, first compound 10 µM
[13] = second compound 0.1 µM, first compound 0.0316 µM
[14] = second compound 0.1 µM, first compound 0.1 µM
[15] = second compound 0.1 µM, first compound 0.316 µM
[16] = second compound 0.1 µM, first compound 1 µM
[17] = second compound 0.1 µM, first compound 3.16 µM
[18] = second compound 0.1 µM, first compound 10 µM
[19] = second compound 0.316 µM, first compound 0.0316 µM
[20] = second compound 0.316 µM, first compound 0.1 µM
[21] = second compound 0.316 µM, first compound 0.316 µM
[22] = second compound 0.316 µM, first compound 1 µM
[23] = second compound 0.316 µM, first compound 3.16 µM
[24] = second compound 0.316 µM, first compound 10 µM
[25] = second compound 1 µM, first compound 0.0316 µM
[26] = second compound 1 µM, first compound 0.1 µM
[27] = second compound 1 µM, first compound 0.316 µM
[28] = second compound 1 µM, first compound 1 µM
[29] = second compound 1 µM, first compound 3.16 µM
[30] = second compound 1 µM, first compound 10 µM
[31] = second compound 3.16 µM, first compound 0.0316 µM
[32] = second compound 3.16 µM, first compound 0.1 µM
[33] = second compound 3.16 µM, first compound 0.316 µM
[34] = second compound 3.16 µM, first compound 1 µM
[35] = second compound 3.16 µM, first compound 3.16 µM
[36] = second compound 3.16 µM, first compound 10 µM
[37] = second compound 10 µM, first compound 0.0316 µM
[38] = second compound 10 µM, first compound 0.1 µM
[39] = second compound 10 µM, first compound 0.316 µM
[40] = second compound 10 µM, first compound 1 µM
[41] = second compound 10 µM, first compound 3.16 µM
[42] = second compound 10 µM, first compound 10 µM
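Note: spheroids exposed to the agents for 7 days.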

COc1ccc([C@@H](O)c2cc(-c3ncnc4cc(N5CCOCC5)ccc34)c(F)cc2Cl)nn1 + CN1CCN(c2cc(C(=O)Nc3cc4cc(-c5cnn(C)c5)ccc4cn3)ccn2)CC1
IC50 [1]: > 10000 nM | IC50 [2]: 8160 nM | IC50 [3]: < 31.6 nM | IC50 [4]: < 31.6 nM | IC50 [5]: < 31.6 nM | IC50 [6]: < 31.6 nM | viability, T/C [7]: 91.6% | viability, T/C [8]: 103% | viability, T/C [9]: 91.1% | viability, T/C [10]: 96.7% | viability, T/C [11]: 71.7% | viability, T/C [12]: 51.5% | viability, T/C [13]: 73.2% | viability, T/C [14]: 87.5% | viability, T/C [15]: 73% | viability, T/C [16]: 96.7% | viability, T/C [17]: 71.5% | viability, T/C [18]: 45.4% | viability, T/C [19]: 21% | viability, T/C [20]: 25.2% | viability, T/C [21]: 20.6% | viability, T/C [22]: 17.7% | viability, T/C [23]: 21.5% | viability, T/C [24]: 22.5% | viability, T/C [25]: 0.11% | viability, T/C [26]: 2.93% | viability, T/C [27]: 2.16% | viability, T/C [28]: 2.41% | viability, T/C [29]: 1.4% | viability, T/C [30]: 2.54% | viability, T/C [31]: 2.66% | viability, T/C [32]: 0.1% | viability, T/C [33]: 0.14% | viability, T/C [34]: 0.11% | viability, T/C [35]: 3.57% | viability, T/C [36]: 2.6% | viability, T/C [37]: 1.28% | viability, T/C [38]: 1.19% | viability, T/C [39]: 0.19% | viability, T/C [40]: 0.13% | viability, T/C [41]: 0.17% | viability, T/C [42]: 1.61%

COC1C=CCC(C)C(C)S(=O)(=O)NC(=O)c2ccc3c(c2)N(CC2CCC21)CC1(CCCc2cc(Cl)ccc21)CO3 (configuration not stated)
viability, T/C (compound 0.0316 µM): 93.3% and 98.1% | viability, T/C (compound 0.1 µM): 90.6% and 96.7% | viability, T/C (compound 0.316 µM): 101% and 103% | viability, T/C (compound 1 µM): 96.7% and 93.2% | viability, T/C (compound 3.16 µM): 77.2% and 69.3% | IC50 (curve of compound): 8470 nM and 4400 nM

CC(=O)O[C@H]1C(=O)[C@@]2(C)[C@H]([C@H](OC(=O)c3ccccc3)[C@]3(O)C[C@H](OC(=O)[C@H](O)[C@@H](NC(=O)c4ccccc4)c4ccccc4)C(C)=C1C3(C)C)[C@]1(OC(C)=O)CO[C@@H]1C[C@@H]2O + CNC(=O)c1ccc(Nc2nc(OC3CCCC3)c3c(-c4ccc5nc(C)oc5c4)c[nH]c3n2)c(OC)c1
IC50 [1]: < 31.6 nM | IC50 [2]: < 31.6 nM | IC50 [3]: < 31.6 nM | IC50 [4]: < 31.6 nM | IC50 [5]: < 31.6 nM | IC50 [6]: < 31.6 nM | viability, T/C [7]: 11.7% | viability, T/C [8]: 7.56% | viability, T/C [9]: 14% | viability, T/C [10]: 13.7% | viability, T/C [11]: 12.7% | viability, T/C [12]: 22% | viability, T/C [13]: 20.2% | viability, T/C [14]: 22.9% | viability, T/C [15]: 18.8% | viability, T/C [16]: 26.1% | viability, T/C [17]: 25.2% | viability, T/C [18]: 29.1% | viability, T/C [19]: 21.1% | viability, T/C [20]: 23.5% | viability, T/C [21]: 24.7% | viability, T/C [22]: 29.3% | viability, T/C [23]: 32.1% | viability, T/C [24]: 29.8% | viability, T/C [25]: 21% | viability, T/C [26]: 24% | viability, T/C [27]: 27% | viability, T/C [28]: 30.8% | viability, T/C [29]: 36.7% | viability, T/C [30]: 28% | viability, T/C [31]: 22.2% | viability, T/C [32]: 27.2% | viability, T/C [33]: 29.8% | viability, T/C [34]: 32.7% | viability, T/C [35]: 37.1% | viability, T/C [36]: 33.9% | viability, T/C [37]: 20% | viability, T/C [38]: 28.6% | viability, T/C [39]: 30.5% | viability, T/C [40]: 36.7% | viability, T/C [41]: 42.3% | viability, T/C [42]: 36%

C#Cc1c(F)ccc2cc(O)cc(-c3ncc4c(N5CC6CCC(C5)N6)nc(OCC56CCCN5CC(F)C6)nc4c3F)c12 (configuration not stated) + CNC(=O)c1ccc(Nc2nc(OC3CCCC3)c3c(-c4ccc5nc(C)oc5c4)c[nH]c3n2)c(OC)c1
IC50 [1]: 5140 nM | IC50 [2]: < 31.6 nM | IC50 [3]: < 31.6 nM | IC50 [4]: < 31.6 nM | IC50 [5]: < 31.6 nM | IC50 [6]: < 31.6 nM | viability, T/C [7]: 68.5% | viability, T/C [8]: 63.2% | viability, T/C [9]: 60.2% | viability, T/C [10]: 65% | viability, T/C [11]: 62.6% | viability, T/C [12]: 32.6% | viability, T/C [13]: 11.3% | viability, T/C [14]: 10.5% | viability, T/C [15]: 7.58% | viability, T/C [16]: 11.6% | viability, T/C [17]: 9.36% | viability, T/C [18]: 7.63% | viability, T/C [19]: 8.02% | viability, T/C [20]: 9.37% | viability, T/C [21]: 9.67% | viability, T/C [22]: 8.78% | viability, T/C [23]: 7.32% | viability, T/C [24]: 5.64% | viability, T/C [25]: 10% | viability, T/C [26]: 11.6% | viability, T/C [27]: 8.24% | viability, T/C [28]: 9.01% | viability, T/C [29]: 8.47% | viability, T/C [30]: 5.54% | viability, T/C [31]: 9.2% | viability, T/C [32]: 8.8% | viability, T/C [33]: 9.68% | viability, T/C [34]: 9.11% | viability, T/C [35]: 9.06% | viability, T/C [36]: 6.06% | viability, T/C [37]: 10.7% | viability, T/C [38]: 11.8% | viability, T/C [39]: 10.1% | viability, T/C [40]: 10.3% | viability, T/C [41]: 10.5% | viability, T/C [42]: 4.63%
